# In patent publication US12357711B2, “PSMA binding dual mode radiotracer and therapeutic” (Technische Universität München, priority 2019, dated 2025):
# “And” between values parts separate entries of the source, which are not always exact repeats. Equal entries are not always repeated.
# Columns and labels:
# patients = assay: Human biodistribution and uptake in tumor lesions (PET/CT, SUV); type: in vivo; settings: clinical PET/CT
# Description: Human biodistribution was estimated by analysing clinical ^18F-rhPSMA-7- and ^18F-rhPSMA-7.3-PET/CT exams in 47 and 32 patients, respectively.
# The mean and maximum standardized uptake values (SUVmean/SUVmax) were determined for background (gluteal muscle), normal organs (salivary glands, blood pool, lung, liver, spleen, pancreas, duodenum, kidney, bladder, bone) and three representative tumor lesions. Tumor uptake was analyzed in 89 lesions (26 primary tumors/local recurrences, 23 bone, 38 lymph node and 2 visceral metastases) and 63 lesions (14 primary tumors/local recurrences, 30 bone, 18 lymph node and 1 visceral metastases) for ^18F-rhPSMA-7 and ^18F-rhPSMA-7.3, respectively.
# Organ-background and Tumor-background ratios were calculated.
# human serum albumin = target: T1, human serum albumin (Homo sapiens, UniProt P02768); assay: HSA binding on Chiralpak HSA column; type: in vitro ADME; settings: Chiralpak HSA column (50 × 3 mm, 5 μm)
# T1 construct: purchased H13H-2433
# Description: The mobile phase (A: NH4OAc, 50 mM in water, pH 7 and B: isopropanol) was freshly prepared for each experiment and only used for one day. The column was kept at room temperature and each run was stopped after detection of the signal to reduce the acquisition time. All substances were dissolved in a 0.5 mg/ml concentration in 50% 2-propanol and 50% 50 mM pH 6.9 ammonium acetate buffer. […] All nine reference substances were injected consecutively to establish a non-linear regression with Origin Pro 2016G.
# [1] = tested on: LNCaP tumor-bearing SCID mice; assay: Biodistribution at 1 h p.i.; type: in vivo
# Description: FIG. 10: Biodistribution (in % ID/g) of ^18E-labeled rhPSMA tracers at 1 h p.i in LNCaP tumor-bearing SCID mice. Data are expressed as mean±SD (n=4 for rhPSMA7.1, n=5 for 7.2, n=4 for 7.3, n=5 for 7.4 and n=3 for 7-rac).
# T1 sequence (P02768 25-609): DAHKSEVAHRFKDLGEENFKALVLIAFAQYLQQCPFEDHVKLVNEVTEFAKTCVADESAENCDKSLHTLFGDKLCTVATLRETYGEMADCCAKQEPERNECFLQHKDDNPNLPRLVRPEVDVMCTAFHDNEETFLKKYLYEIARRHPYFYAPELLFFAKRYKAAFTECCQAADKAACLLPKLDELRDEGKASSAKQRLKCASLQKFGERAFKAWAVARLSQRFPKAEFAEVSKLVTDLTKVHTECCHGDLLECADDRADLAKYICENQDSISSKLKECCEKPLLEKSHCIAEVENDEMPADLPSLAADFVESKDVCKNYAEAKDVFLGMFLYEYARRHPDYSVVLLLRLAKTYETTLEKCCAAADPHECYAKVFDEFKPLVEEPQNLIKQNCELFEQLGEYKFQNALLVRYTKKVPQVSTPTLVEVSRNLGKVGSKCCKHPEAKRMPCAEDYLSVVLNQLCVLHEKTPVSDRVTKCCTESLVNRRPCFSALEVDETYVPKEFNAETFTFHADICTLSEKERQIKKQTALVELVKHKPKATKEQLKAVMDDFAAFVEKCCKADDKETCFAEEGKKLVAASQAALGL
substance,measurement,setting,value
[^19F][^natGa]D/L-Dap-R/S-DOTAGA-rhPSMA7 [rhPSMA7-rac],"SUVmax bladder, max",patients,112.0
same,"SUVmax bladder, mean",patients,8.5
same,"SUVmax bladder, min",patients,0.5
same,"SUVmax bloodpool, max",patients,3.9
same,"SUVmax bloodpool, mean",patients,2.4
same,"SUVmax bloodpool, min",patients,1.6
same,"SUVmax duodenum, max",patients,32.7
same,"SUVmax duodenum, mean",patients,14.8
same,"SUVmax duodenum, min",patients,2.8
same,"SUVmax kidney, max",patients,75.2
same,"SUVmax kidney, mean",patients,44.8
same,"SUVmax kidney, min",patients,19.1
same,"SUVmax liver, max",patients,25.2
same,"SUVmax liver, mean",patients,9.5
same,"SUVmax liver, min",patients,4.5
same,"SUVmax lungs, max",patients,3.1
same,"SUVmax lungs, mean",patients,1.1
same,"SUVmax lungs, min",patients,0.5
same,"SUVmax pancreas, max",patients,7.9
same,"SUVmax pancreas, mean",patients,3.7
same,"SUVmax pancreas, min",patients,1.8
same,"SUVmax parotic gland, max",patients,42.3
same,"SUVmax parotic gland, mean",patients,23.8
same,"SUVmax parotic gland, min",patients,8.2
same,"SUVmax spleen, max",patients,21.0
same,"SUVmax spleen, mean",patients,11.8
same,"SUVmax spleen, min",patients,4.7
same,"SUVmax submandibular gland, max",patients,43.8
same,"SUVmax submandibular gland, mean",patients,27.0
same,"SUVmax submandibular gland, min",patients,10.1
same,"SUVmean bladder, max",patients,85.7
same,"SUVmean bladder, min",patients,0.3
same,"SUVmean bloodpool, max",patients,17.0
same,"SUVmean bloodpool, mean",patients,2.0
same,"SUVmean bloodpool, min",patients,1.1
same,"SUVmean duodenum, max",patients,23.9
same,"SUVmean duodenum, mean",patients,10.9
same,"SUVmean duodenum, min",patients,1.9
same,"SUVmean kidney, max",patients,54.7
same,"SUVmean kidney, mean",patients,32.4
same,"SUVmean kidney, min",patients,13.2
same,"SUVmean liver, max",patients,17.7
same,"SUVmean liver, mean",patients,7.0
same,"SUVmean liver, min",patients,3.2
same,"SUVmean lungs, max",patients,2.0
same,"SUVmean lungs, mean",patients,0.7
same,"SUVmean lungs, min",patients,0.3
same,"SUVmean pancreas, max",patients,5.5
same,"SUVmean pancreas, mean",patients,2.5
same,"SUVmean pancreas, min",patients,1.3
same,"SUVmean parotic gland, max",patients,32.7
same,"SUVmean parotic gland, mean",patients,16.9
same,"SUVmean parotic gland, min",patients,5.5
same,"SUVmean spleen, max",patients,17.1
same,"SUVmean spleen, mean",patients,9.1
same,"SUVmean spleen, min",patients,3.4
same,"SUVmean submandibular gland, max",patients,29.7
same,"SUVmean submandibular gland, mean",patients,19.6
same,"SUVmean submandibular gland, min",patients,7.0
same,"SUVmax background, max",patients; gluteal muscle,1.8
same,"SUVmax background, mean",patients; gluteal muscle,1.0
same,"SUVmax background, min",patients; gluteal muscle,0.6
same,"SUVmean background, max",patients; gluteal muscle,1.2
same,"SUVmean background, mean",patients; gluteal muscle,0.6
same,"SUVmean background, min",patients; gluteal muscle,0.4
same,"SUVmax bone, max",patients; non-diseased bone,3.1
same,"SUVmax bone, mean",patients; non-diseased bone,1.7
same,"SUVmax bone, min",patients; non-diseased bone,0.8
same,"SUVmean bone, max",patients; non-diseased bone,2.1
same,"SUVmean bone, mean",patients; non-diseased bone,1.1
same,"SUVmean bone, min",patients; non-diseased bone,0.6
same,"SUVmax tumor, max",patients; tumor lesions,167.2
same,"SUVmax tumor, mean",patients; tumor lesions,27.6
same,"SUVmax tumor, min",patients; tumor lesions,3.1
same,"SUVmean tumor, max",patients; tumor lesions,115.7
same,"SUVmean tumor, min",patients; tumor lesions,2.1
same,"SUVmean tumor, mean","patients; tumor lesions, listed as 18F-rhPSMA-7",20.0±20.2 and 20.0
same,"SUVmean bladder, mean",patients; listed as 18F-rhPSMA-7,6.3
same,HSA Binding,human serum albumin,96.7%
same,Biodistribution adrenals,[1],3.0 ± 0.45 % ID/g
same,Biodistribution blood,[1],1.1 ± 0.03 % ID/g
same,Biodistribution bone,[1],0.91 ± 0.11 % ID/g
same,Biodistribution heart,[1],0.69 ± 0.07 % ID/g
same,Biodistribution intestine,[1],0.60 ± 0.27 % ID/g
same,Biodistribution kidneys,[1],71.3 ± 13.3 % ID/g
same,Biodistribution liver,[1],0.67 ± 0.07 % ID/g
same,Biodistribution lung,[1],1.4 ± 0.17 % ID/g
same,Biodistribution muscle,[1],0.36 ± 0.06 % ID/g
same,Biodistribution pancreas,[1],0.60 ± 0.10 % ID/g
same,Biodistribution spleen,[1],11.1 ± 2.3 % ID/g
same,Biodistribution stomach,[1],0.49 ± 0.07 % ID/g
same,Biodistribution tumor,[1]; LNCaP tumor,10.4 ± 0.67 % ID/g
